Laboratory results taken from paper PMC5464773 (eLife, 2017).
Read-outs that look alike come from different tables or passages of the source.

Tests used:
SF295 cells = assay type: cell-based
Method: (§1) To test the possibility that FS1, FS2 or FS3 may directly activate BAK and BAX, we measured cytochrome c release in two ‘unprimed’ cell lines (PC-3 and SF295). Unprimed cells require BAK/BAX activators to release cytochrome c ([Certo et al., 2006]).
(§2) Cell line identities were confirmed by STR profiling.
(§3) Plates were incubated at 25°C for 1 hr.

Bcl-xL = target: T1, Bcl-xL (Homo sapiens, UniProt Q07817); experiment: Competition fluorescence polarization (anisotropy) with fluoresceinated BIM; assay type: binding
T1 construct: c-myc
Method: (§4) Plates were mixed at 23°C for 3 hr. Plates were read again at 24 to check equilibration. Experiments were done in at least triplicate.

Bfl-1 = target: T2, Bfl-1 (Homo sapiens, UniProt Q16548); experiment: as above; assay type: binding; conditions: for Ki / Ki (M) Bfl-1: competition FP source data; for Ki: mean of three replicates
T2 construct: c-myc
T2 sequence (Q16548 1-175): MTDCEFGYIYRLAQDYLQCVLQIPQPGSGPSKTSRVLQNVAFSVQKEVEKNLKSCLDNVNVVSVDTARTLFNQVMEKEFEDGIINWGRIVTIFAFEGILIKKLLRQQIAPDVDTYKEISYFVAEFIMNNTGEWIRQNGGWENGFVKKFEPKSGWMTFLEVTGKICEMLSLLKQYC
Method: as §4

Bcl-2 = target: T3, Bcl-2 (Homo sapiens, UniProt P10415); experiment: as above; assay type: binding
T3 construct: c-myc
Method: as §4

Bcl-w = target: T4, Bcl-w (Homo sapiens, UniProt Q92843); experiment: as above; assay type: binding
T4 construct: c-myc
T4 sequence (Q92843 1-193): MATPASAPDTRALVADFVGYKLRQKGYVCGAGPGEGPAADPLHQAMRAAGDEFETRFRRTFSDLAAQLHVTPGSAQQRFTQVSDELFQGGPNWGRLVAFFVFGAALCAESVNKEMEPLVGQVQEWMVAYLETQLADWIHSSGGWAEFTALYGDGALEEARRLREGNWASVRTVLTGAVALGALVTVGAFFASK
Method: as §4

Mcl-1 = target: T5, Mcl-1 (Homo sapiens, UniProt Q07820); experiment: as above; assay type: binding
T5 construct: c-myc
Method: C-myc-tagged receptors were used for all Bcl-2 homologs, as previously described ([DeBartolo et al., 2012]; [Dutta et al., 2010]). Plates were mixed at 23°C for 3 hr. Plates were read again at 24 to check equilibration. Experiments were done in at least triplicate. Data were fit, as described for competition fluorescence anisotropy experiments in [Foight et al. (2014]), to a complete competitive binding model (equation 17 in [Roehrl et al. [2004]]) using a Python script.

[1] = tested on: BCR-ABL-expressing B-lineage acute lymphoblastic leukemia cells dependent on Bcl-2; experiment: iBH3 profiling, cytochrome c release; assay type: cell-based; conditions: iBH3 fits Bcl-2, sigmoidal dose-response (variable slope)
Method: (§5) As an additional test for on-pathway activity, we measured cytochrome c release in the same engineered cell lines in response to peptide treatment, using iBH3 profiling ([Ryan et al., 2016]).
(§6) The creation and characterization of the BCR-ABL-expressing B-lineage acute lymphoblastic leukemia suspension cell lines with engineered dependencies on human versions of anti-apoptotic genes is detailed in [Koss et al. (2016)]). Cells were grown in RPMI (Life Technologies, Carlsbad, CA) with 10% fetal bovine serum, 2 mM L-glutamine, 10 mL/L 100x Pen/Strep (Life Technologies # 15140122), 25 mM HEPES and 10 mL/L 100x NEAA (Life Technologies, 11140050). The adherent cell lines PC-3 (RRID: CVCL_0035) and SF295 (RRID: CVCL_1690) are from the NCI60 panel ([Lorenzi et al., 2009]) and were grown in RPMI (Life Technologies) with 10% fetal bovine serum, 2 mM L-glutamine and 10 mL/L 100x Pen/Strep (Life Technologies # 15140122 ). Cell line identities were confirmed by STR profiling. The Lookout Mycoplasma PCR detection kit (Sigma) was used to detect mycoplasma infection.
(§7) Cells were suspended in MEB buffer (150 mM mannitol, 50 mM KCl, 10 mM HEPES, 5 mM succinic acid, 20 μM EGTA, 20 μM EDTA, 0.1% BSA, final pH 7.4) at 0.5*10^6 cells/mL (adherent lines) or 2 *10^6 cells/mL (suspension lines). Cell suspension was added to a 384 non-binding well plate (10 μL/well) containing peptides at 2X final concentration in MEB with 20 μg/mL digitonin. Plates were incubated at 25°C for 1 hr. To terminate exposure, 10 μL of 4% formaldehyde in PBS was added to each well, plates were incubated for 10 min before addition of 10 μL N2 buffer (1.7M Tris, 1.25M glycine, pH 9.1) for 5 min. 10 μL of staining buffer (2% Tween20, 10% BSA, PBS) containing 10 μg/mL Hoechst 33342 and 1.25 μg/mL anti-cytochrome c Alexa647 conjugate (BioLegend clone 6H2.B4) was added to each well before sealing the plate and shaking overnight. The median fluorescence of the cytochrome c channel of Hoechst positive singlets was recorded by an IntelliCyt iQue Screener Plus. Cytochrome c release was determined by normalizing the median fluorescence intensity (MFI) data to positive control wells (Alamethicin) and negative control wells (DMSO) as follows: Cytochromecrelease=1−(MFIsample−MFIAlamethicin)/(MFIDMSO−MFIAlamethicin)

[2] = tested on: BCR-ABL-expressing B-lineage acute lymphoblastic leukemia cells dependent on Mcl-1; conditions: iBH3 fits Mcl-1, sigmoidal dose-response (variable slope)
Method: as §5, §6, §7

PC-3 cells = experiment: iBH3, cytochrome c release in unprimed cells (BAK/BAX activator function); assay type: cell-based
Method: as §1, §2, §3

[3] = SF295 cells, iBH3 fit, sigmoidal dose-response (variable slope)
[4] = competition FP source data, replicate 1
[5] = competition FP source data, replicate 2
[6] = competition FP source data, replicate 3
[7] = competition FP source data, mean of three replicates, values above 5 μM are reported as > 5 μM in the figures, read-out: mean Ki (M) Bcl-w
[8] = iBH3 fit PC-3, sigmoidal dose-response (variable slope), fit of 4 replicates
[9] = competition FP, 50 nM c-myc-tagged receptor + 25 nM fluoresceinated BIM, Tris pH 7.8, 23°C, 3 hr, mean ± SD of three replicates, read-out: Ki (nM) Bcl-xL
[10] = competition FP, 50 nM c-myc-tagged receptor + 25 nM fluoresceinated BIM, Tris pH 7.8, 23°C, 3 hr, mean ± SD of three replicates, read-out: Ki (nM) Bcl-2
[11] = competition FP, 50 nM c-myc-tagged receptor + 25 nM fluoresceinated BIM, Tris pH 7.8, 23°C, 3 hr, mean ± SD of three replicates, read-out: Ki (nM) Bcl-w
[12] = competition FP source data, mean of three replicates, values above 5 μM are reported as > 5 μM in the figures, read-out: mean Ki (M) Mcl-1
[13] = competition FP, 50 nM c-myc-tagged receptor + 25 nM fluoresceinated BIM, Tris pH 7.8, 23°C, 3 hr, mean ± SD of three replicates, read-out: Ki (nM) Mcl-1

T3 sequence (P10415 whole entry): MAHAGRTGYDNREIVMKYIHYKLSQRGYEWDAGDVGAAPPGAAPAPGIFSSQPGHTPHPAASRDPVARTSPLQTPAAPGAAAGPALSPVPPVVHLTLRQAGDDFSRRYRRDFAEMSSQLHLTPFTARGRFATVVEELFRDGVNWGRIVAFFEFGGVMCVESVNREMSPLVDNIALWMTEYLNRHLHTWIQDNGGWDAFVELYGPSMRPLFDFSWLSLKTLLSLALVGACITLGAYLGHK
T1 sequence (Q07817 whole entry): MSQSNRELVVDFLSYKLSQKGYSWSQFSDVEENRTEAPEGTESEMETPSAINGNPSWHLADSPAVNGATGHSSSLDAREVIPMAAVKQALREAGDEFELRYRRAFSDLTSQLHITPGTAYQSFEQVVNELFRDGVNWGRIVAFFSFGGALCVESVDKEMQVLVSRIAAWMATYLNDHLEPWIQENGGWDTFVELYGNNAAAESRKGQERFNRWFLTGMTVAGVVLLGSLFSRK
T5 sequence (Q07820 whole entry): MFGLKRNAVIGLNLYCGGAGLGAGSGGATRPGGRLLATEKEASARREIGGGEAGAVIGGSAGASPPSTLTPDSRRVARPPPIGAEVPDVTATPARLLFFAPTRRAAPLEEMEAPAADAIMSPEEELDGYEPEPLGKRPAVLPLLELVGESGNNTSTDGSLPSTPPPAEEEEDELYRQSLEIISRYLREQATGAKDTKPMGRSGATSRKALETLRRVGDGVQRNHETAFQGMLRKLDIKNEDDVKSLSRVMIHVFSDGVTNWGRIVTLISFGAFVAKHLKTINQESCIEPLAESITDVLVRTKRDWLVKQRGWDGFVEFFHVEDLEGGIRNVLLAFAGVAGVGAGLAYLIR

Ki (M) Bcl-xL (Bcl-xL; [4]) [M]	Ki (M) Bcl-xL (Bcl-xL; [5]) [M]	Ki (M) Bcl-xL (Bcl-xL; [6]) [M]	Ki (Bfl-1) [nM]	Ki (M) Bfl-1 (Bfl-1; replicate 1) [M]	Ki (M) Bfl-1 (Bfl-1; replicate 2) [M]	Ki (M) Bfl-1 (Bfl-1; replicate 3) [M]	Ki (M) Bcl-2 (Bcl-2; [4]) [M]	Ki (M) Bcl-2 (Bcl-2; [5]) [M]	Ki (M) Bcl-2 (Bcl-2; [6]) [M]	Ki (Bcl-w; [7]) [M]	Ki (M) Bcl-w (Bcl-w; [4]) [M]	Ki (M) Bcl-w (Bcl-w; [5]) [M]	Ki (M) Bcl-w (Bcl-w; [6]) [M]	Ki (M) Mcl-1 (Mcl-1; [4]) [M]	Ki (M) Mcl-1 (Mcl-1; [5]) [M]	Ki (M) Mcl-1 (Mcl-1; [6]) [M]	Ki (Bcl-xL; [9]) [nM]	Ki (Bcl-2; [10]) [M]	Ki (Bcl-w; [11]) [M]	Compound	also measured
2.23e-09	4.17e-09	4.19e-10	4.84	4.9e-09	5.4e-09	4.23e-09	4.27e-09	9.91e-09	2.68e-09	2.97e-09	4.44e-09	4.04e-09	4.31e-10	2.28e-09	3.28e-09	1.63e-09	–	–	–	CC[C@H](C)[C@H](NC(=O)[C@H](CCC(=O)O)NC(=O)[C@H](CCCNC(=N)N)NC(=O)[C@H](C)NC(=O)[C@H](Cc1c[nH]c2ccccc12)NC(=O)[C@H](CCC(N)=O)NC(C)=O)C(=O)NCC(=O)N[C@@H](C)C(=O)N[C@@H](CCC(N)=O)C(=O)N[C@@H](CC(C)C)C(=O)N[C@@H](CCCNC(=N)N)C(=O)N[C@@H](CCCNC(=N)N)C(=O)N[C@@H](CCSC)C(=O)N[C@@H](C)C(=O)N[C@@H](CC(=O)O)C(=O)N[C@@H](CC(=O)O)C(=O)N[C@@H](CC(C)C)C(=O)N[C@@H](CC(N)=O)C(=O)N[C@@H](C)C(=O)N[C@@H](CCC(N)=O)C(=O)N[C@@H](Cc1ccc(O)cc1)C(=O)N[C@@H](CCC(=O)O)C(=O)N[C@@H](CCCNC(=N)N)C(N)=O [PUMA, reference compound]	peptide concentration leading to cytochrome c release in unprimed cells (SF295 cells; SF295, unprimed, iBH3, 25°C, 1 hr): observed cytochrome c release; Bottom (best-fit value) (SF295 cells; [3]): -0.02393; HillSlope (best-fit value) (SF295 cells; [3]): 0.4226; Top (best-fit value) (SF295 cells; [3]): 0.958; LogEC50 (best-fit value) (SF295 cells; SF295 cells, iBH3 fit, sigmoidal dose-response (variable slope), log of peptide concentration in M): -5.945; LogEC50 (best-fit value) ([1]; log of EC50, x axis Log [Peptide M]): -7.436; HillSlope (best-fit value) [1]: 1.78; Bottom (best-fit value) ([1]; fit of 3 replicates): 0.2923; Top (best-fit value) ([1]; fit of 3 replicates): 1.01; HillSlope (best-fit value) [2]: ~ 1.358; Bottom (best-fit value) ([2]; fit of 3 replicates): ~ -276.9; Top (best-fit value) ([2]; fit of 3 replicates): 0.9859; peptide concentration leading to cytochrome c release in unprimed cells (PC-3 cells; PC-3, unprimed, iBH3, 25°C, 1 hr): observed cytochrome c release; LogEC50 (best-fit value) (PC-3 cells; iBH3 fit PC-3, log of EC50, x axis Log [Peptide M], sigmoidal dose-response (variable slope)): -6.309; HillSlope (best-fit value) (PC-3 cells; iBH3 fit PC-3, sigmoidal dose-response (variable slope)): 1.567; Bottom (best-fit value) (PC-3 cells; [8]): 0.1477; Top (best-fit value) (PC-3 cells; [8]): 0.7911
–	–	–	594	4.65e-07	6.79e-07	6.37e-07	1.99e-06	1.85e-06	2.17e-06	8.83e-06	9.94e-06	6.82e-06	9.74e-06	5.7e-06	6.84e-05	0.00018	2.4 ± 1.2	1.4e-08 ± 2e-09	1.2e-09 ± 3e-10	Ac-QWVREIAAQLRRMADDLNAQYER-NH2 [FS2_N/Puma_C]	Ki (Bcl-2; competition FP source data, mean of three replicates, values above 5 μM are reported as > 5 μM in the figures, read-out: mean Ki (M) Bcl-2): 2e-06 M; Ki (Mcl-1; [12]): 8.46e-05 M; Ki (Mcl-1; [13]): 3e-10 ± 3e-10 M
3.68e-09	1.31e-09	2.24e-09	–	–	–	–	–	–	–	–	–	–	–	6.72e-10	1.94e-10	1.4e-10	1100 ± 300	2e-06 ± 1.6e-07	> 5e-06	Ac-QWAREIGAGLRRAADDVNAQVER-NH2 [Puma_N/FS2_C]	Ki (Bcl-xL; competition FP source data, mean of three replicates, values above 5 μM are reported as > 5 μM in the figures, read-out: mean Ki (M) Bcl-xL): 2.41 nM; Ki (Mcl-1; [12]): 3.36e-10 M; Ki (Mcl-1; [13]): > 5e-06 M

Compound	Ki (M) Bcl-xL (Bcl-xL; [4]) [M]	Ki (M) Bcl-xL (Bcl-xL; [5]) [M]	Ki (M) Bcl-xL (Bcl-xL; [6]) [M]	Ki (Bfl-1) [nM]	Ki (M) Bfl-1 (Bfl-1; replicate 1) [M]	Ki (M) Bfl-1 (Bfl-1; replicate 2) [M]	Ki (M) Bfl-1 (Bfl-1; replicate 3) [M]	Ki (M) Bcl-2 (Bcl-2; [4]) [M]	Ki (M) Bcl-2 (Bcl-2; [5]) [M]	Ki (M) Bcl-2 (Bcl-2; [6]) [M]	Ki (Bcl-w; [7]) [M]	Ki (M) Bcl-w (Bcl-w; [4]) [M]	Ki (M) Bcl-w (Bcl-w; [5]) [M]	Ki (M) Bcl-w (Bcl-w; [6]) [M]	Ki (M) Mcl-1 (Mcl-1; [4]) [M]	Ki (M) Mcl-1 (Mcl-1; [5]) [M]	Ki (M) Mcl-1 (Mcl-1; [6]) [M]	Ki (Bcl-xL; [9]) [nM]	Ki (Bcl-2; [10]) [M]	Ki (Bcl-w; [11]) [M]	also measured
Ac-RPVIWIAQGLRRAGDEVNAYVAR-NH2 [BIM-FS2]	–	–	–	–	7.75e-07	7.87e-07	5.89e-07	–	–	–	–	–	–	–	–	–	–	–	–	–	fold weaker binding to Bfl-1 than native BIM (Bfl-1; ratio of Ki values from competition FP): > 1000 fold
